In patent US5591837A, “5-O-desosaminylerythronolide a derivative” (Taisho Pharmaceutical Co., Ltd., priority 1992, dated 1997):
≈ marks a conversion by molar mass, not a printed value. Read-outs that look alike come from different tables or passages of the source.

Experiments:
S. aureus Smith 4 [1] = experiment: In vivo antibacterial activity: protection effect against infection with S. aureus Smith 4 in mice; design: species or system male ICR mice; details: oral, 1 hour after inoculation, 7 days
Description: The injection protection effect of the compound of the present invention against infectious bacteria (S. aureus Smith 4) was studied using 8 male ICR mice, 4-week-old, for each group and using Comparative drugs 1, 2 and 3 (as described in Experiment 1). Infectious bacteria (S. aureus Smith 4) were incubated for 18 hours, and diluted with a saline solution containing 5% mucin and heart infusion agar, and 0.5 ml of which was inoculated intraperitoneally to mice. An hour after inoculation of bacteria, the drug suspended in 5% gum arabic was administered orally, followed by judgement of life and death during 7 days.

S. aureus Smith 4 [2] = experiment: In vitro antibacterial activity (MIC), S. aureus Smith 4; assay type: cell-based; details: Staphylococcus aureus
Description: (§1) The in vitro antibacterial activity of the compound of the present invention against various experimental microorganism was measured using sensitive disc media (produced by Eiken Chemical Co.) according to the MIC measuring method specified by the Japan Chemotherpeutic Society. Comparative drug 1:3-deoxy-11-{2-[methyl(benzyl)amino]ethyl}amino-3-oxo-5-O-desosaminyl-6-O-methylerythronolide A 11-N,12-O-cyclic carbamate (described in EP patent No. 0487411), Comparative drug 2:3-deoxy-3-oxo-5-O-desosaminyl-6-O-methylerythronolide A 11,12-cyclic carbonate (described in EP patent No. 0487411), Comparative drug 3:6-O-methylerythromycin A and Comparative drug 4:azithromycin were used.

E. faecalis CSJ 1212 = experiment: In vitro antibacterial activity (MIC), E. faecalis CSJ 1212; assay type: cell-based; details: Enterococcus faecalis
Description: as §1

S. aureus 209P-JC = experiment: In vitro antibacterial activity (MIC), S. aureus 209P-JC; assay type: cell-based; details: Staphylococcus aureus, read-out: MIC value (Minimum Inhibitory Concentration)
Description: as §1

H. influenzae ATCC19418 = experiment: In vitro antibacterial activity (MIC), H. influenzae ATCC19418; assay type: cell-based; details: Haemophilus influenzae, sensitive disc media, read-out: MIC value (Minimum Inhibitory Concentration)
Description: as §1

S. aureus B1 = experiment: In vitro antibacterial activity (MIC), S. aureus B1; assay type: cell-based; details: Staphylococcus aureus
Description: as §1

[3] = Concentration in mouse serum after oral administration; assay type: in vivo, male ICR mice; details: dose not given; for AUC / Cmax: mouse serum; for concentration at 0.25 h / concentration at 0.5 h / concentration at 1 h / concentration at 2 h / concentration at 4 h / concentration at 6 h: mouse, serum; for concentration at 0.5 h: 0.50 hr
Description: Concentration of the compound of the present invention in mouse serum was determined by using 10 male ICR mice, 4-week-old, for each group and using Comparative drugs 2 and 3 (as described in Experiment 1). The drug suspended in 5% gum arabic was administered orally to mice, the blood was collected with lapse of time, and the serum was separated. Concentration of the drug in the serum was measured by using M. luteus ATCC 9341 as approved bacteria according to the papar-disc method.

[4] = SMITH4, S. aureus Smith 4, sensitive disc media, read-out: MIC value (Minimum Inhibitory Concentration)
[5] = S. aureus B1, sensitive disc media, read-out: MIC value (Minimum Inhibitory Concentration)
[6] = CSJ1212, E. faecalis CSJ 1212, sensitive disc media, read-out: MIC value (Minimum Inhibitory Concentration)
[7] = S. aureus 209P-JC, sensitive disc media
[8] = B1, read-out: MIC value (Minimum Inhibitory Concentration)

Compound	Number of Survival (n = 8) (S. aureus Smith 4 [1]; 0.1 mg/mouse)	Number of Survival (n = 8) (S. aureus Smith 4 [1]; 0.4 mg/mouse)	Number of Survival (n = 8) (S. aureus Smith 4 [1]; 1.6 mg/mouse)	MIC (S. aureus Smith 4 [2]; [4])	MIC (S. aureus 209P-JC; 209P)	MIC (H. influenzae ATCC19418)	MIC (S. aureus B1; [5])	AUC [3]	Cmax [3]	concentration at 0.25 h [3]	concentration at 0.5 h [3]	concentration at 1 h [3]	concentration at 2 h [3]	concentration at 4 h [3]	MIC (E. faecalis CSJ 1212; [6])	MIC (S. aureus 209P-JC; [7])	concentration at 6 h ([3]; 6 hr)	MIC (S. aureus B1; [8])	further results
CC[C@H]1OC(=O)[C@H](C)C(=O)[C@H](C)[C@@H](O[C@@H]2O[C@H](C)C[C@H](N(C)C)[C@H]2O)[C@](C)(OC)C[C@@H](C)C(=O)[C@H](C)[C@H]2N(CCN(C)Cc3ccccc3)C(=O)O[C@]12C [Comparative drug 1, 3-deoxy-11-{2-[methyl(benzyl)amino]ethyl}amino-3-oxo-5-O-desosaminyl-6-O-methylerythronolide A 11-N,12-O-cyclic carbamate]	2	2	7	0.1 µg/mL (≈ 0.132 µM)	0.1 µg/mL (≈ 0.132 µM)	6.25 µg/mL (≈ 8.22 µM)	0.39 µg/mL (≈ 0.513 µM)												MIC (E. faecalis CSJ 1212; CSJ1212, read-out: MIC value (Minimum Inhibitory Concentration)): 0.1 µg/mL (≈ 0.132 µM)
CC[C@H]1OC(=O)[C@H](C)C(=O)[C@H](C)[C@@H](O[C@@H]2O[C@H](C)C[C@H](N(C)C)[C@H]2O)[C@](C)(OC)C[C@@H](C)C(=O)[C@H](C)[C@H]2OC(=O)O[C@@]21C [Comparative drug 2, 3-deoxy-3-oxo-5-O-desosaminyl-6-O-methylerythronolide A 11,12-cyclic carbonate]	2	8	8	0.1 µg/mL (≈ 0.163 µM)		25 µg/mL (≈ 40.7 µM)	1.56 µg/mL (≈ 2.54 µM)	1370 ng·h/mL	410 ng/mL	310 ng/mL	410 ng/mL	270 ng/mL	280 ng/mL	260 ng/mL	0.05 µg/mL (≈ 0.0815 µM)	0.1 µg/mL (≈ 0.163 µM)			Concentration in mouse serum ([3]; 6 hr): 0 ng/mL
CC[C@H]1OC(=O)[C@H](C)[C@@H](O[C@H]2C[C@@](C)(OC)[C@@H](O)[C@H](C)O2)[C@H](C)[C@@H](O[C@@H]2O[C@H](C)C[C@H](N(C)C)[C@H]2O)[C@](C)(OC)C[C@@H](C)C(=O)[C@H](C)[C@@H](O)[C@]1(C)O [Comparative drug 3, 6-O-methylerythromycin A]	3	6	8	0.1 µg/mL (≈ 0.134 µM)		12.5 µg/mL (≈ 16.7 µM)		880 ng·h/mL	340 ng/mL	290 ng/mL	330 ng/mL	340 ng/mL	110 ng/mL	110 ng/mL	3.13 µg/mL (≈ 4.18 µM)	0.1 µg/mL (≈ 0.134 µM)	40 ng/mL	> 100 µg/mL	
CC[C@H]1OC(=O)[C@H](C)[C@@H](O[C@H]2C[C@@](C)(OC)[C@@H](O)[C@H](C)O2)[C@H](C)[C@@H](O[C@@H]2O[C@H](C)C[C@H](N(C)C)[C@H]2O)[C@](C)(O)C[C@@H](C)CN(C)[C@H](C)[C@@H](O)[C@]1(C)O [Comparative drug 4, azithromycin]				0.39 µg/mL (≈ 0.521 µM)		6.25 µg/mL (≈ 8.34 µM)	> 100 µg/mL								6.25 µg/mL (≈ 8.34 µM)	20 µg/mL (≈ 26.7 µM)			
CC[C@H]1OC(=O)[C@H](C)C(=O)[C@H](C)[C@@H](O[C@@H]2O[C@H](C)C[C@H](N(C)C)[C@H]2O)[C@](C)(OC)C[C@@H](C)C(=O)[C@H](C)[C@H]2NC(=O)O[C@@]21C [Compound 1, 11-amino-3,11-dideoxy-3-oxo-5-O-desosaminyl-6-O-methylerythronolide A 11-N,12-O-cyclic carbamate]	8	8	8		0.05 µg/mL (≈ 0.0816 µM)	6.25 µg/mL (≈ 10.2 µM)		2900 ng·h/mL	1170 ng/mL	230 ng/mL	1170 ng/mL	770 ng/mL	600 ng/mL	440 ng/mL	0.05 µg/mL (≈ 0.0816 µM)		50 ng/mL	0.2 µg/mL (≈ 0.326 µM)	MIC (S. aureus Smith 4 [2]; SMITH4, read-out: MIC value (Minimum Inhibitory Concentration)): 0.1 µg/mL (≈ 0.163 µM)
